The NIST ThermoML archive (doi:10.1021/je800418m)
Several values for one entry are separate records, joined by “and”; a condition that tells them apart may be missing. Equal entries are not always repeated. ± gives the expanded uncertainty stated by the source.

Settings: Crystal

Question: What does the source list for `N.O=C(O)C(F)(F)C(F)(F)C(F)(F)C(F)(F)C(F)(F)C(F)(F)C(F)(F)F` [ammonium perfluorooctanoate]?
Answer: vapor or sublimation pressure (318.35 K): 3e-05 ± 1e-05 kPa; vapor or sublimation pressure (318.45 K): 2e-05 ± 1e-05 kPa; vapor or sublimation pressure (318.55 K): 3e-05 ± 1e-05 kPa and 5e-05 ± 2e-05 kPa; vapor or sublimation pressure (318.75 K): 1e-05 ± 1e-05 kPa; vapor or sublimation pressure (318.85 K): 7e-05 ± 3e-05 kPa; vapor or sublimation pressure (328.25 K): 7e-05 ± 3e-05 kPa; vapor or sublimation pressure (328.35 K): 6e-05 ± 3e-05 kPa; vapor or sublimation pressure (328.45 K): 6e-05 ± 3e-05 kPa; vapor or sublimation pressure (328.65 K): 9e-05 ± 4e-05 kPa and 0.00019 ± 8e-05 kPa; vapor or sublimation pressure (328.75 K): 4e-05 ± 2e-05 kPa and 9e-05 ± 4e-05 kPa and 6e-05 ± 3e-05 kPa; vapor or sublimation pressure (328.85 K): 0.00014 ± 6e-05 kPa and 6e-05 ± 3e-05 kPa and 0.00011 ± 5e-05 kPa; vapor or sublimation pressure (333.15 K): 9e-05 ± 4e-05 kPa; vapor or sublimation pressure (333.35 K): 0.00023 ± 9e-05 kPa; vapor or sublimation pressure (333.65 K): 0.00013 ± 5e-05 kPa [middle of 4 runs]; vapor or sublimation pressure (333.75 K): 0.00021 ± 9e-05 kPa
